Laboratory results: ChEMBL document CHEMBL3046822, “Synthesis, antiplatelet aggregation activity, and molecular modeling study of novel substituted-piperazine analogues” (2011)
The source made the active and inactive calls. The calls are words filed in the database; no cut-off is given here.

Columns and labels:
[1] = Antiaggregating activity in Homo sapiens (human) platelet rich plasma assessed as ristocetin-induced platelet aggregation at 1 uM incubated for 4 min prior to ristocetin-induction measured for 5.5 min by turbidometric analysis (reference value: 65 to 99%); assay type: functional
Platelet [2] = experiment: Antiaggregating activity in Homo sapiens (human) platelet rich plasma assessed as inhibition of adrenaline-induced platelet aggregation at 0.125 uM incubated for 4 min prior to adrenaline-induction measured for 5.5 min by turbidometric analysis; assay type: functional, cell-free
[3] = Antiaggregating activity in Homo sapiens (human) platelet rich plasma assessed as ristocetin-induced platelet aggregation at 0.03 uM incubated for 4 min prior to ristocetin-induction measured for 5.5 min by turbidometric analysis (reference value: 65 to 99%); assay type: functional
Platelet [4] = experiment: Antiaggregating activity in Homo sapiens (human) platelet rich plasma assessed as inhibition of arachidonic acid-induced platelet aggregation at 0.125 uM incubated for 4 min prior to arachidonic acid-induction measured for 5.5 min by turbidometric analysis; assay type: functional, cell-free
Platelet [5] = experiment: Antiaggregating activity in Homo sapiens (human) platelet rich plasma assessed as inhibition of collagen-induced platelet aggregation at 0.03 uM incubated for 4 min prior to collagen-induction measured for 5.5 min by turbidometric analysis; assay type: functional, cell-free
Platelet [6] = experiment: Antiaggregating activity in Homo sapiens (human) platelet rich plasma assessed as inhibition of arachidonic acid-induced platelet aggregation at 0.06 uM incubated for 4 min prior to arachidonic acid-induction measured for 5.5 min by turbidometric analysis; assay type: functional, cell-free
Platelet [7] = experiment: Antiaggregating activity in Homo sapiens (human) platelet rich plasma assessed as inhibition of ADP-induced platelet aggregation at 0.125 uM incubated for 4 min prior to ADP-induction measured for 5.5 min by turbidometric analysis; assay type: functional, cell-free
Platelet [8] = experiment: Antiaggregating activity in Homo sapiens (human) platelet rich plasma assessed as inhibition of adrenaline-induced platelet aggregation at 1 uM incubated for 4 min prior to adrenaline-induction measured for 5.5 min by turbidometric analysis; assay type: functional, cell-free
[9] = Antiaggregating activity in Homo sapiens (human) platelet rich plasma assessed as arachidonic acid-induced platelet aggregation at 0.03 uM incubated for 4 min prior to arachidonic acid-induction measured for 5.5 min by turbidometric analysis (reference value: 55 to 100%); assay type: functional
Platelet [10] = experiment: Antiaggregating activity in Homo sapiens (human) platelet rich plasma assessed as inhibition of adrenaline-induced platelet aggregation at 0.06 uM incubated for 4 min prior to adrenaline-induction measured for 5.5 min by turbidometric analysis; assay type: functional, cell-free
[11] = Antiaggregating activity in Homo sapiens (human) platelet rich plasma assessed as ADP-induced platelet aggregation at 0.03 uM incubated for 4 min prior to ADP-induction measured for 5.5 min by turbidometric analysis (reference value: 54 to 88%); assay type: functional
[12] = Antiaggregating activity in Homo sapiens (human) platelet rich plasma assessed as ristocetin-induced platelet aggregation at 0.06 uM incubated for 4 min prior to ristocetin-induction measured for 5.5 min by turbidometric analysis (reference value: 65 to 99%); assay type: functional
[13] = Antiaggregating activity in Homo sapiens (human) platelet rich plasma assessed as disaggregation of ADP-induced platelet aggregation at 0.06 uM incubated for 4 min prior to ADP-induction measured for 5.5 min by turbidometric analysis relative to control; assay type: functional
Platelet [14] = experiment: Antiaggregating activity in Homo sapiens (human) platelet rich plasma assessed as inhibition of collagen-induced platelet aggregation at 0.125 uM incubated for 4 min prior to collagen-induction measured for 5.5 min by turbidometric analysis; assay type: functional, cell-free
Platelet [15] = experiment: Antiaggregating activity in Homo sapiens (human) platelet rich plasma assessed as inhibition of arachidonic acid-induced platelet aggregation at 1 uM incubated for 4 min prior to arachidonic acid-induction measured for 5.5 min by turbidometric analysis; assay type: functional, cell-free
Platelet [16] = experiment: Antiaggregating activity in Homo sapiens (human) platelet rich plasma assessed as inhibition of adrenaline-induced platelet aggregation at 0.03 uM incubated for 4 min prior to adrenaline-induction measured for 5.5 min by turbidometric analysis; assay type: functional, cell-free
Platelet [17] = experiment: Antiaggregating activity in Homo sapiens (human) platelet rich plasma assessed as inhibition of collagen-induced platelet aggregation at 1 uM incubated for 4 min prior to collagen-induction measured for 5.5 min by turbidometric analysis; assay type: functional, cell-free
[18] = Antiaggregating activity in Homo sapiens (human) platelet rich plasma assessed as ristocetin-induced platelet aggregation at 0.125 uM incubated for 4 min prior to ristocetin-induction measured for 5.5 min by turbidometric analysis (reference value: 65 to 99%); assay type: functional
Platelet [19] = experiment: Antiaggregating activity in Homo sapiens (human) platelet rich plasma assessed as inhibition of collagen-induced platelet aggregation at 0.06 uM incubated for 4 min prior to collagen-induction measured for 5.5 min by turbidometric analysis; assay type: functional, cell-free
Platelet [20] = experiment: Antiaggregating activity in Homo sapiens (human) platelet rich plasma assessed as inhibition of ADP-induced platelet aggregation at 1 uM incubated for 4 min prior to ADP-induction measured for 5.5 min by turbidometric analysis; assay type: functional, cell-free
[21] = Antiaggregating activity in Homo sapiens (human) platelet rich plasma assessed as ristocetin-induced platelet aggregation at 0.5 uM incubated for 4 min prior to ristocetin-induction measured for 5.5 min by turbidometric analysis (reference value: 65 to 99%); assay type: functional
Platelet [22] = experiment: Antiaggregating activity in Homo sapiens (human) platelet rich plasma assessed as inhibition of collagen-induced platelet aggregation at 0.5 uM incubated for 4 min prior to collagen-induction measured for 5.5 min by turbidometric analysis; assay type: functional, cell-free
Platelet [23] = experiment: Antiaggregating activity in Homo sapiens (human) platelet rich plasma assessed as inhibition of ADP-induced platelet aggregation at 0.5 uM incubated for 4 min prior to ADP-induction measured for 5.5 min by turbidometric analysis; assay type: functional, cell-free
Platelet [24] = experiment: Antiaggregating activity in Homo sapiens (human) platelet rich plasma assessed as inhibition of adrenaline-induced platelet aggregation at 0.5 uM incubated for 4 min prior to adrenaline-induction measured for 5.5 min by turbidometric analysis; assay type: functional, cell-free
[25] = Antiaggregating activity in Homo sapiens (human) platelet rich plasma assessed as ristocetin-induced platelet aggregation at 0.25 uM incubated for 4 min prior to ristocetin-induction measured for 5.5 min by turbidometric analysis (reference value: 65 to 99%); assay type: functional
Platelet [26] = experiment: Antiaggregating activity in Homo sapiens (human) platelet rich plasma assessed as inhibition of arachidonic acid-induced platelet aggregation at 0.25 uM incubated for 4 min prior to arachidonic acid-induction measured for 5.5 min by turbidometric analysis; assay type: functional, cell-free
Platelet [27] = experiment: Antiaggregating activity in Homo sapiens (human) platelet rich plasma assessed as inhibition of ADP-induced platelet aggregation at 0.25 uM incubated for 4 min prior to ADP-induction measured for 5.5 min by turbidometric analysis; assay type: functional, cell-free
Platelet [28] = experiment: Antiaggregating activity in Homo sapiens (human) platelet rich plasma assessed as inhibition of adrenaline-induced platelet aggregation at 0.25 uM incubated for 4 min prior to adrenaline-induction measured for 5.5 min by turbidometric analysis; assay type: functional, cell-free
Platelet [29] = experiment: Antiaggregating activity in Homo sapiens (human) platelet rich plasma assessed as inhibition of collagen-induced platelet aggregation at 0.25 uM incubated for 4 min prior to collagen-induction measured for 5.5 min by turbidometric analysis; assay type: functional
Platelet [30] = experiment: Antiaggregating activity in Homo sapiens (human) platelet rich plasma assessed as inhibition of ristocetin-induced platelet aggregation at 1 uM incubated for 4 min prior to ristocetin-induction measured for 5.5 min by turbidometric analysis; assay type: functional, cell-free
Platelet [31] = experiment: Antiaggregating activity in Homo sapiens (human) platelet rich plasma assessed as inhibition of arachidonic acid-induced platelet aggregation at 0.5 uM incubated for 4 min prior to arachidonic acid-induction measured for 5.5 min by turbidometric analysis; assay type: functional

## Br.O=C(C1CCCN(Cc2ccc(Br)cc2)C1)N1CCN(c2ccccc2Cl)CC1 (stereo not given)
[1]
  Activity: 39%
Platelet [2]
  inhibition: Active
[3]
  Activity: 67%
Platelet [4]
  inhibition: Active
Platelet [5]
  inhibition: Active
Platelet [6]
  inhibition: Active
Platelet [7]
  inhibition: Active
Platelet [8]
  inhibition: Active
[9]
  Activity: 56%
Platelet [10]
  inhibition: Active
[11]
  Activity: 55%
[12]
  Activity: 62%
[13]
  Activity: 20%
Platelet [14]
  inhibition: Active
Platelet [15]
  inhibition: Active
Platelet [16]
  inhibition: Active
Platelet [17]
  inhibition: Active
[18]
  Activity: 53%
Platelet [19]
  inhibition: Active
Platelet [20]
  inhibition: Active

## COc1cc(C(=O)[n+]2cccc(C(=O)N3CCN(c4ccccc4Cl)CC3)c2)cc(OC)c1OC.[Cl-]
[21]
  Activity: 20%
Platelet [22]
  inhibition: Active
Platelet [23]
  inhibition: Active
Platelet [24]
  inhibition: Active
[25]
  Activity: 79%
Platelet [26]
  inhibition: Active
Platelet [8]
  inhibition: Active
Platelet [27]
  inhibition: Active
Platelet [28]
  inhibition: Active
Platelet [29]
  inhibition: Active
Platelet [15]
  inhibition: Active
Platelet [17]
  inhibition: Active
Platelet [30]
  inhibition: Active
Platelet [31]
  inhibition: Active
Platelet [20]
  inhibition: Active
